Consider 39 compounds from US10266549B2, “ULK1 inhibitors and methods using same” (SALK INSTITUTE FOR BIOLOGICAL STUDIES, priority 2014, dated 2019).

This experiment deals with ULK1 (Homo sapiens (Human), UniProt O75385). Description: ULK1 inhibition assay (Table 1). Type of experiment: biochemical. To be noted: * = tested as a mixture of regioisomers.
Sequence of ULK1 (O75385 whole entry, species assumed): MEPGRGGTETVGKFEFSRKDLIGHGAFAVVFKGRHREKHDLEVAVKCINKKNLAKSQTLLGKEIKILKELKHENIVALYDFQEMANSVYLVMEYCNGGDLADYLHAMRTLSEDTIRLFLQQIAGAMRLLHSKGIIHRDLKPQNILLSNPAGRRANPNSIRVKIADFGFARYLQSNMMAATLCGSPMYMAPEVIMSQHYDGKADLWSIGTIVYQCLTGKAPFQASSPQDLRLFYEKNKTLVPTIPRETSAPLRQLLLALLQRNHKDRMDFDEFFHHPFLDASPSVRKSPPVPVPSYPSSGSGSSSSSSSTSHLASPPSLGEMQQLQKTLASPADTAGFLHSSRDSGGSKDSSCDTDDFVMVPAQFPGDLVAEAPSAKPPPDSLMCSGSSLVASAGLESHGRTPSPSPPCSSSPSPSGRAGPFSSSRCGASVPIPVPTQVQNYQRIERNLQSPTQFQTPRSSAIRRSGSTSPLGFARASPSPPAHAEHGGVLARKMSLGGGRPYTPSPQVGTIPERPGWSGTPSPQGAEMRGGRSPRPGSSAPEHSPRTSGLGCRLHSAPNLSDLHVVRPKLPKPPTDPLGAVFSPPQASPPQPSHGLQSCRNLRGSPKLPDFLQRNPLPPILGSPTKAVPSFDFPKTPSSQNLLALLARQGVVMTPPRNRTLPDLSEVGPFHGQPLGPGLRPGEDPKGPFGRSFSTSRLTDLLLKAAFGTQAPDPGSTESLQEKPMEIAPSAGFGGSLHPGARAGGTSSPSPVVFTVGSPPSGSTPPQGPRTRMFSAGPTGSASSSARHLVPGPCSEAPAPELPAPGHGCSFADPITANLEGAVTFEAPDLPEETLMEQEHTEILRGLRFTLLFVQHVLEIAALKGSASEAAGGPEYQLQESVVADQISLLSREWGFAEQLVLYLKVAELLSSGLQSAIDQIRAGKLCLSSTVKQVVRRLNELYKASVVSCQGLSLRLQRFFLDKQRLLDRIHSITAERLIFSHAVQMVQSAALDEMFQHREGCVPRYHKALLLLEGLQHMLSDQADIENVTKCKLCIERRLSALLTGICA

Consider `CNC(=O)c1ccccc1Oc1nc(Nc2ccc(OC)cc2)ncc1C(F)(F)F` [105a, 2-((2-((4-methoxyphenyl)amino)-5-(trifluoromethyl)pyrimidin-4-yl)oxy)-N-methylbenzamide], for which the 50% inhibitory concentration (IC50) (as a rule, the concentration needed to halve the response being measured) is over 2000 nM.
The same measure for `COc1ccc(Nc2ncc(C(F)(F)F)c(O)n2)cc1` [105b, 2-((4-methoxyphenyl)amino)-5-(trifluoromethyl)pyrimidin-4-ol]: over 2000 nM.
`CNC(=O)c1ccccc1Oc1nc(Nc2ccc(Cl)c(Cl)c2)ncc1C(F)(F)F` [108a, 2-((2-((3,4-dichlorophenyl)amino)-5-(trifluoromethyl)pyrimidin-4-yl)oxy)-N-methylbenzamide]: the half-inhibitory concentration (IC50) is over 2000 nM.
Turning to `Oc1nc(Nc2ccc(Cl)c(Cl)c2)ncc1C(F)(F)F` [108b, 2-((3,4-dichlorophenyl)amino)-5-(trifluoromethyl)pyrimidin-4-ol], the IC50 was over 2000 nM.
Turning to `CNC(=O)c1ccccc1Oc1nc(Nc2cc(OC)ccc2OC)ncc1C(F)(F)F` [109a, 2-((2-((2,5-dimethoxyphenyl)amino)-5-(trifluoromethyl)pyrimidin-4-yl)oxy)-N-methylbenzamide], the IC50 is over 2000 nM.
With `COc1ccc(OC)c(Nc2ncc(C(F)(F)F)c(O)n2)c1` [109b, 2-((2,5-dimethoxyphenyl)amino)-5-(trifluoromethyl)pyrimidin-4-ol], the IC50 is over 2000 nM.
With `CNC(=O)c1ccccc1Oc1nc(Nc2cccc(OC)c2OC)ncc1C(F)(F)F` [115a, 2-((2-((2,3-dimethoxyphenyl)amino)-5-(trifluoromethyl)pyrimidin-4-yl)oxy)-N-methylbenzamide], the IC50 is over 2000 nM.
The same measure for `COc1cccc(Nc2ncc(C(F)(F)F)c(O)n2)c1OC` [115b, 2-((2,3-dimethoxyphenyl)amino)-5-(trifluoromethyl)pyrimidin-4-ol]: over 2000 nM; for `CNC(=O)c1ccccc1Oc1nc(Nc2ccccc2SC)ncc1C(F)(F)F` [116a, N-methyl-2-((2-((2-(methylthio)phenyl)amino)-5-(trifluoromethyl)pyrimidin-4-yl)oxy)benzamide]: over 2000 nM.
For `CSc1ccccc1Nc1ncc(C(F)(F)F)c(Nc2ccccc2SC)n1` [116b, N^2,N^4-bis(2-(methylthio)phenyl)-5-(trifluoromethyl)pyrimidine-2,4-diamine] the value was over 2000 nM; for `O=C1CCc2cc(Nc3ncc(C(F)(F)F)c(Nc4ccccc4N4CCOCC4)n3)ccc2N1` [118a, 6-((4-((2-morpholinophenyl)amino)-5-(trifluoromethyl)pyrimidin-2-yl)amino)-3,4-dihydroquinolin-2(1H)-one], under 200 nM; for `O=C1CCc2cc(Nc3nc(Nc4ccccc4N4CCOCC4)ncc3C(F)(F)F)ccc2N1` [118b, 6-((2-((2-morpholinophenyl)amino)-5-(trifluoromethyl)pyrimidin-4-yl)amino)-3,4-dihydroquinolin-2(1H)-one], over 2000 nM.
As to `Oc1ncc(C(F)(F)F)c(Nc2ccccc2N2CCOCC2)n1` [118c, 4-((2-morpholinophenyl)amino)-5-(trifluoromethyl)pyrimidin-2-ol], the IC50 is over 2000 nM.
Consider `O=C1CCc2cc(Nc3ncc(C(F)(F)F)c(Nc4ccccc4OC(F)F)n3)ccc2N1` [120a, 6-((4-((2-(difluoromethoxy)phenyl)amino)-5-(trifluoromethyl)pyrimidin-2-yl)amino)-3,4-dihydroquinolin-2(1H)-one], for which the IC50 was under 200 nM.
Take `FC(F)Oc1ccccc1Nc1ncc(C(F)(F)F)c(Nc2ccccc2OC(F)F)n1` [120b, N^2,N^4-bis(2-(difluoromethoxy)phenyl)-5-(trifluoromethyl)pyrimidine-2,4-diamine]: the IC50 was 200 to 2000 nM.
Take `O=C1CCc2cc(Nc3ncc(C(F)(F)F)c(Nc4ccc5c(c4)CCC(=O)N5)n3)ccc2N1` [120c, 6,6′-((5-(trifluoromethyl)pyrimidine-2,4-diyl)bis(azanediyl))bis(3,4-dihydroquinolin-2(1H)-one)]: the IC50 was under 200 nM.
The same measure for `COc1cc(N2CCOCC2)ccc1Nc1nc(Nc2ccc3c(c2)CCC(=O)N3)ncc1C(F)(F)F` [123a, 6-((4-((2-methoxy-4-morpholinophenyl)amino)-5-(trifluoromethyl)pyrimidin-2-yl)amino)-3,4-dihydroquinolin-2(1H)-one]: under 200 nM; for `COc1cc(N2CCOCC2)ccc1Nc1ncc(C(F)(F)F)c(Nc2ccc3c(c2)CCC(=O)N3)n1` [123b, 6-((2-((2-methoxy-4-morpholinophenyl)amino)-5-(trifluoromethyl)pyrimidin-4-yl)amino)-3,4-dihydroquinolin-2(1H)-one]: under 200 nM; for `FC(F)(F)c1cnc(Nc2ccc3c(c2)OCO3)nc1Nc1ccc2c(c1)OCO2` [124c, N^2,N^4-bis(benzo[d][1,3]dioxol-5-yl)-5-(trifluoromethyl)pyrimidine-2,4-diamine]: under 200 nM.
Regarding `O=C1CCc2cc(Nc3ncc(C(F)(F)F)c(Nc4cccc5ccccc45)n3)ccc2N1` [126a, 6-((4-(naphthalen-1-ylamino)-5-(trifluoromethyl)pyrimidin-2-yl)amino)-3,4-dihydroquinolin-2(1H)-one], the IC50 was 200 to 2000 nM.
Turning to `FC(F)(F)c1cnc(Nc2cccc3ccccc23)nc1Nc1cccc2ccccc12` [126b, N^2,N^4-di(naphthalen-1-yl)-5-(trifluoromethyl) pyrimidine-2,4-diamine], the IC50 fell in the range of 200 to 2000 nM.
Consider `O=C1CCc2cc(Nc3ncc(C(F)(F)F)c(NC4Cc5ccccc5C4)n3)ccc2N1` [130a, 6-((4-((2,3-dihydro-1H-inden-2-yl)amino)-5-(trifluoromethyl)pyrimidin-2-yl)amino)-3,4-dihydroquinolin-2(1H)-one], for which the IC50 is under 200 nM.
The same measure for `O=C1CCc2cc(Nc3nc(NC4Cc5ccccc5C4)ncc3C(F)(F)F)ccc2N1` [130b, 6-((2-((2,3-dihydro-1H-inden-2-yl)amino)-5-(trifluoromethyl)pyrimidin-4-yl)amino)-3,4-dihydroquinolin-2(1H)-one]: over 2000 nM; for `O=C1CCc2cc(Nc3ncc(C(F)(F)F)c(NC4CC4)n3)ccc2N1` [131a, 6-((4-(cyclopropylamino)-5-(trifluoromethyl)pyrimidin-2-yl)amino)-3,4-dihydroquinolin-2(1H)-one]: under 200 nM; for `O=C1CCc2cc(Nc3nc(NC4CC4)ncc3C(F)(F)F)ccc2N1` [131b, 6-((2-(cyclopropylamino)-5-(trifluoromethyl)pyrimidin-4-yl)amino)-3,4-dihydroquinolin-2(1H)-one]: under 200 nM.
Turning to `Fc1c(Nc2ncc(C(F)(F)F)c(Nc3ccc4c(c3)OCO4)n2)cccc1C(F)(F)F` [141a, N^4-(benzo[d][1,3]dioxol-5-yl)-N^2-(2-fluoro-3-(trifluoromethyl)phenyl)-5-(trifluoromethyl)pyrimidine-2,4-diamine], the IC50 is over 2000 nM.
In the case of `Fc1c(Nc2nc(Nc3ccc4c(c3)OCO4)ncc2C(F)(F)F)cccc1C(F)(F)F` [141b, N^2-(benzo[d][1,3]dioxol-5-yl)-N^4-(2-fluoro-3-(trifluoromethyl)phenyl)-5-(trifluoromethyl)pyrimidine-2,4-diamine], the IC50 was under 200 nM.
Turning to `COc1cccc(Nc2nc(Nc3ccc4c(c3)CCC(=O)N4)ncc2Cl)c1` [143a, 6-((5-chloro-4-((3-methoxyphenyl)amino)pyrimidin-2-yl)amino)-3,4-dihydroquinolin-2(1H)-one], the IC50 was under 200 nM.
The same measure for `COc1cccc(Nc2ncc(Cl)c(Nc3cccc(OC)c3)n2)c1` [143b, 5-chloro-N^2,N^4-bis(3-methoxyphenyl) pyrimidine-2,4-diamine]: under 200 nM; for `O=C1CCc2cc(Nc3ncc(C(F)(F)F)c(NC4CCC4)n3)ccc2N1` [150a, 6-((4-(cyclobutylamino)-5-(trifluoromethyl)pyrimidin-2-yl)amino)-3,4-dihydroquinolin-2(1H)-one]: under 200 nM.
Regarding `O=C1CCc2cc(Nc3nc(NC4CCC4)ncc3C(F)(F)F)ccc2N1` [150b, 6-((2-(cyclobutylamino)-5-(trifluoromethyl)pyrimidin-4-yl)amino)-3,4-dihydroquinolin-2(1H)-one], the IC50 is under 200 nM.
The same measure for `COCCNc1nc(Nc2ccc3c(c2)CCC(=O)N3)ncc1C(F)(F)F` [151a, 6-((4-((2-methoxyethyl)amino)-5-(trifluoromethyl)pyrimidin-2-yl)amino)-3,4-dihydroquinolin-2(1H)-one]: under 200 nM.
Consider `COCCNc1ncc(C(F)(F)F)c(Nc2ccc3c(c2)CCC(=O)N3)n1` [151b, 6-((2-((2-methoxyethyl)amino)-5-(trifluoromethyl)pyrimidin-4-yl)amino)-3,4-dihydroquinolin-2(1H)-one], for which the IC50 is under 200 nM.
On to `FC(F)(F)c1cnc(Nc2cnc3[nH]ccc3c2)nc1NC1CC1` [152a, N^4-cyclopropyl-N^2-(1H-pyrrolo[2,3-b]pyridin-5-yl)-5-(trifluoromethyl)pyrimidine-2,4-diamine], for which the IC50 is under 200 nM.
For `FC(F)(F)c1cnc(NC2CC2)nc1Nc1cnc2[nH]ccc2c1` [152b, N^2-cyclopropyl-N^4-(1H-pyrrolo[2,3-b]pyridin-5-yl)-5-(trifluoromethyl)pyrimidine-2,4-diamine] the value was 200 to 2000 nM.
The same measure for `FC(F)(F)c1cnc(Nc2ccc3c(c2)OCCO3)nc1NC1CC1` [158a, N^4-cyclopropyl-N^2-(2,3-dihydrobenzo[b][1,4]dioxin-6-yl)-5-(trifluoromethyl)pyrimidine-2,4-diamine]: under 200 nM; for `FC(F)(F)c1cnc(NC2CC2)nc1Nc1ccc2c(c1)OCCO2` [158b, N^2-cyclopropyl-N^4-(2,3-dihydrobenzo[b][1,4]dioxin-6-yl)-5-(trifluoromethyl)pyrimidine-2,4-diamine]: under 200 nM.
Take `O=C1CCc2cc(Nc3ncc(C(F)(F)F)c(NC4CCCC4)n3)ccc2N1` [160a, 6-((4-(cyclopentylamino)-5-(trifluoromethyl)pyrimidin-2-yl)amino)-3,4-dihydroquinolin-2(1H)-one]: the IC50 was under 200 nM.
Take `O=C1CCc2cc(Nc3nc(NC4CCCC4)ncc3C(F)(F)F)ccc2N1` [160b, 6-((2-(cyclopentylamino)-5-(trifluoromethyl)pyrimidin-4-yl)amino)-3,4-dihydroquinolin-2(1H)-one]: the IC50 was 200 to 2000 nM.
